Source: PMC5017989, “Anti-inflammatory and acetylcholinesterase activity of extract, fractions and five compounds isolated from the leaves and twigs of Artemisia annua growing in Cameroon” (SpringerPlus, 2016)
Like-named read-outs stand apart in the source and are kept apart here. Marks after values point to notes of the source that are not given here.

Experiments:
[1] = test system: NO production in LPS-activated RAW 264.7 macrophages; assay: Nitric oxide inhibitory activity in LPS-activated RAW 264.7 macrophages (Griess reagent); format: cell-based, murine; conditions: for inhibition at 0.5 µg/mL / inhibition at 2 µg/mL / inhibition at 5 µg/mL / inhibition at 20 µg/mL: Mus musculus, relative to LPS control; for inhibition at 0.5 µg/mL: RAW264.7, sample at 0.5 µg/mL; for inhibition at 2 µg/mL: RAW264.7, sample at 2 µg/mL; for inhibition at 5 µg/mL: RAW264.7, sample at 5 µg/mL; for inhibition at 20 µg/mL: RAW264.7, sample at 20 µg/mL; for NO: LPS-activated RAW 264.7
Protocol: Compounds were assayed for their potential to inhibit the NO production in macrophage cells.
(§1) The RAW 264.7 macrophages cell line was purchased from the American Type Culture Collection (ATCC TIB-71, Rockville, MD, USA) and cultured in a plastic culture flask in DMEM containing L-glutamine supplemented with 10 % FCS and 1 % PSF solution at 37 °C with 5 % CO2. Cells were seeded (10^4 per well) in 96 well-microtitre plate and activated LPS alone (control) or with samples at different concentrations. Quercetin was used as a positive control (Mu et al. [2001]).
The amount of nitric oxide released was determined by the Griess reagent as reported previously (Dzoyem et al. [2015]).

[2] = in vitro; format: cell-based, murine; conditions: mouse, MTT, cells with LPS only = 100 %, read-out: % Cell viability
Protocol: as §1
(§2) The number of viable cells was determined as previously described by Mosmann ([1983]) on the macrophage cells with few modifications. Briefly, the cells were topped up with 200 µL DMEM after removal of media. 30 µL of 15 mg/mL MTT were added to each well and cells were incubated at 37 °C with 5 % CO2. The medium was aspirated after 2 h, and the formazan salt formed was dissolved using DMSO. The absorbance was read at 570 nm on a BioTek Synergy microplate reader. Cell viability percentage was then calculated with reference to the control (cells with LPS only considered as 100 % viable).

[3] = target: acetylcholinesterase (Electrophorus electricus, UniProt O42275); assay: biochemical
Chain of acetylcholinesterase (O42275 24-633): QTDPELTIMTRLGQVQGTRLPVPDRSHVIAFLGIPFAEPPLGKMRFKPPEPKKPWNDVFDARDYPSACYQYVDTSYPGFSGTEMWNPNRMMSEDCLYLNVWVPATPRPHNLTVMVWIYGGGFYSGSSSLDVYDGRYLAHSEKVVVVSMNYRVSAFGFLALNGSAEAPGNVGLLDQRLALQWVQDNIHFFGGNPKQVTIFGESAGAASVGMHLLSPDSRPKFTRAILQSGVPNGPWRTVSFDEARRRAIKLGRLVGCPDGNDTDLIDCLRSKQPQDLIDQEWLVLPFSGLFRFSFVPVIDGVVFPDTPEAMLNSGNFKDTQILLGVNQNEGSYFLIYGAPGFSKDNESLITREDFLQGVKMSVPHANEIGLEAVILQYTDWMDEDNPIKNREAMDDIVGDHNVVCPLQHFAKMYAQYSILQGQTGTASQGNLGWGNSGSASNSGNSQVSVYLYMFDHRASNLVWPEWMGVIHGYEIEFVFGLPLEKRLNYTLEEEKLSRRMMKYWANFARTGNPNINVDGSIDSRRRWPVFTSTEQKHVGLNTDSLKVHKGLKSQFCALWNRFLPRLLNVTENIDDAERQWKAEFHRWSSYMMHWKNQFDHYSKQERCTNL

[4] = test system: RAW 264.7 macrophages; assay: in vitro; format: cell-based, murine; conditions: sample at 20 µg/mL; MTT; cells with LPS only = 100 %
Protocol: as §1, §2

| SMILES | inhibition at 0.5 µg/mL [1] [%] | inhibition at 2 µg/mL [1] [%] | inhibition at 5 µg/mL [1] [%] | inhibition at 20 µg/mL [1] [%] | NO ([1]; sample at 0.5 µg/mL) [µM] | NO ([1]; sample at 2 µg/mL) [µM] | NO ([1]; sample at 5 µg/mL) [µM] | NO ([1]; sample at 20 µg/mL) [µM] | viability ([2]; sample at 0.5 µg/mL) [%] | viability ([2]; sample at 2 µg/mL) [%] | viability ([2]; sample at 5 µg/mL) [%] | viability ([2]; sample at 20 µg/mL) [%] | inhibition at 100 µg/mL [3] [%] | % Cell viability [4] | % Inhibition (acetylcholinesterase) ([3]; single concentration of 100 µg/mL (compounds and galantamine)) |
| --- | --- | --- | --- | --- | --- | --- | --- | --- | --- | --- | --- | --- | --- | --- | --- |
| COc1cc(-c2oc3cc(OC)c(OC)c(O)c3c(=O)c2OC)ccc1O [Compound 3, chrysosplenetin] | 37.7 ± 2.88 | 81.7 ± 1.04 | 98.6 ± 1.67 | > 100 | 4.79 ± 0.22 | 1.41 ± 0.08 | 0.10 ± 0.13 | -0.32 ± 0.02 | 95.6 ± 4.88 | 67.4 ± 3.74 | 28.5 ± 2.18 | 15.9 ± 2.37 | 80 ± 9.67 | – | – |
| COc1cc2ccc(=O)oc2cc1O [Compound 2, scopoletin] | 65.5 ± 4.41 | 72 ± 4.22 | 77.7 ± 2.09 | 98.46 ± 0.79 | 2.65 ± 0.34 | 2.15 ± 0.32 | 1.71 ± 0.16 | 0.12 ± 0.06 | 80.3 ± 8.56 | 69.9 ± 9.23 | 88.5 ± 1.19 | 81.6 ± 4.35 | 56.3 ± 4.92 | without obvious cytotoxic effect | – |
| O=c1c(O)c(-c2ccc(O)c(O)c2)oc2cc(O)cc(O)c12 [Quercetin, reference compound] | 34.9 ± 2.76 | 43 ± 3.89 | 85.7 ± 2.34 | 103 ± 1.08 | 5.01 ± 1.67 | 4.38 ± 0.30 | 1.10 ± 0.18 | – | 105 ± 6.13 | 98.3 ± 5.17 | 76.2 ± 2.06 | 23.1 ± 5.37 | – | – | – |
| C[C@@H]1CC[C@H]2[C@@H](C)C(=O)O[C@@H]3O[C@@]4(C)CC[C@@H]1[C@]32OO4 [Compound 1, artemisinin] | 56.3 ± 14.4 | 83.1 ± 9.72 | 89.1 ± 7.05 | 99.2 ± 2.16 | 3.36 ± 1.10 | 1.30 ± 0.75 | 0.84 ± 0.54 | 0.07 ± 0.17 | 110 ± 6.22 | 104 ± 9.66 | 91.3 ± 2.2 | 80.9 ± 1.71 | 71.7 ± 7.9 | without obvious cytotoxic effect | – |
| COc1ccc(-c2oc3cc(OC)c(OC)c(O)c3c(=O)c2O)cc1O [Compound 4, eupatin] | 83.4 ± 1.96 | 97.9 ± 1.08 | 97.8 ± 6.28 | > 100 | 1.27 ± 0.15 | 0.16 ± 0.08 | 0.17 ± 0.48 | -0.20 ± 0.02 | 79.3 ± 5.34 | 48.5 ± 3.88 | 17.6 ± 1.66 | 7.49 ± 0.62 | – | – | 58.22 ± 2.73^b % |
